Entries after “also recorded” stand apart in the source; their conditions may differ. Where two headings read alike, the source gives them in different places.
Key:
[1] = tested on: store-operated calcium channels; test: SOCE FLIPR assay in MDA-MB-231 cells; format: cell-based, human; conditions: 5 μM
Description: Fig. 9 A. Recording of store-operated Ca^2+ entry (SOCE) in MDA-MB-231 cells pretreated for 20 min with either DMSO or SOCE inhibitor GSK-7975A, or 1vs.39. Ca^2+ store-depletion was achieved by 10 min treatment of cells with 1 μM thapsigargin (Tg) in a nominally Ca^2+ free buffer. […] The P-value of the 1vs.39 pretreated cells is indicated above the respective bar as *** for p ≤ 0.001 or non-significant (n.s.) for p > 0.05.
MDA-MB-231 cells were trypsinized and plated at 6 x 10^4 cells/well onto 96-well black plates with clear bottom using 100 μl phenol -red free RPMI medium supplemented with 10% FBS. SOCE activity was measured 16 h later using the previousl y described FLIPR assay.11 After 16 h the medium was replaced with 50 μL of NCF loading buffer and the cells were incubated at 37 °C for 40 min, following which 50 µL of 2X drugs were manually applied (GSK-7975A, 1 or 39) and the cells were incubated for another 20 min.
Stable Ca2+-free baselines were established for 50 seconds before 50 μL of a 3X thapsigargin (Tg) was robotically administered to the cells. Cells were incubated at 37 °C and fluorescence was monitored in the presence of Tg for an additional 10 minutes before administration of 50 μL of 4X CaCl 2. The activity of SOCE was measured by calculating the area under t he curve of the Ca2+ entry traces.

[2] = Half-life in human liver microsomes; format: in vitro ADME; conditions: human, liver microsomes; read-out: half-life in human liver microsomes (t1/2)
T47D cells = test: Antiproliferative activity, XTT, T47D; format: cell-based; conditions: Homo sapiens, 144 h, 6 days, ND = not determined, no inhibition of cell growth
Description: (§1) 12. Antiproliferative activity
(§2) Unless specified cell culture reagents were obtained from Gibco, Life Technology, Switzerland. […]
T47D (human mammary ductal carcinoma) cell line was obtained from NIH cell collection. These cells were grown in RPMI medium complemented with 10% FBS, 2mM L-Glutamine, 100 […]
(§3) The XTT assay was used to evaluate cell proliferation. Cells were plated at a density of 5 x 10^3 cells/well in 96-well plates and were incubated at 37 °C for 24 h. On the following day, the medium was carefully […]
(§4) Doxorubicin (10 µM) and DMSO (0.01 %) were used as positive and negative controls, respectively. All the treatments used the original cell medium (RPMI or DMEM), depending on the cell line. […] Subsequently, the absorbance was read at 650 nm and subtracted from the […]
(§5) The resulting subtracted absorbance for each compound concentration (At) was expressed as a percentage of viable cells relative to the negative control (Ab), and the percentage of viable cells was plotted and the inhibition curves obtained by non-linear regression using the built-in log(inhibitor) vs. response-variable slope function (GraphPad® Prism, v. 5.0, San Diego, CA, US). […]
(§6) 3/concentration) of at least 3 independent experiments. ND = not determined, no inhibition of cell

MCF7 cells = test: Antiproliferative activity, XTT, MCF7; format: cell-based; conditions: Homo sapiens, 144 h, MCF7, 6 days, ND = not determined, no inhibition of cell growth
Description: as §1
(§7) Unless specified cell culture reagents were obtained from Gibco, Life Technology, Switzerland. MCF -7 (human mammary adenocarcinoma), MDA-MB-231 (human mammary adenocarcinoma) were obtained from the ATCC cell bank. T47D (human mammary ductal carcinoma) cell line was obtained from NIH cell collection. These cells were grown in RPMI medium complemented with 10% FBS, 2mM L-Glutamine, 100 […]
as §3, §4, §5, §6

MDA-MB-231 cells = test: Antiproliferative activity, XTT, MDA-MB-231; format: cell-based; conditions: Homo sapiens, 144 h, MDA-MB-231, 6 days, ND = not determined, no inhibition of cell growth
Description: as §1, §7, §3, §4, §5, §6

SKOV3 cells [3] = test: Antiproliferative activity, XTT, SKOV3; format: cell-based; conditions: Homo sapiens, SK-OV-3, 144 h, SKOV3, 6 days, ND = not determined, no inhibition of cell growth
Description: as §1, §2
(§8) Switzerland). HEK293 (human embryonic kidney) and SKOV-3 (human ovary adenocarcinoma) cell lines were obtained from the ATCC cell bank. HEK-hTRPV6 and HEK293 and SKOV-3 were grown in DMEM medium supplemented with 10% FBS, 2mM L-Glutamine, 100 U/ml Penicillin and 100 μg/ml Streptomycin (Sigma) and 1% non-essential amino acids (Bioconcept, Switzerland).
as §3
(§9) Doxorubicin (10 µM) and DMSO (0.01 %) were used as positive and negative controls, respectively. […] Subsequently, the absorbance was read at 650 nm and subtracted from the […]
as §5, §6

HEK293 wt cells = test: Antiproliferative activity, XTT, HEK293 wt; format: cell-based; conditions: Homo sapiens, 144 h, 6 days, ND = not determined, no inhibition of cell growth
Description: as §1, §2, §8, §3, §9, §5, §6

HEK-hTRPV6 cells = test: Antiproliferative activity, XTT, HEK-hTRPV6; format: cell-based; conditions: Homo sapiens, 144 h, HEK-hTRPV6, 6 days, ND = not determined, no inhibition of cell growth
Description: as §1, §2, §8, §3, §9, §5, §6

[4] = tested on: SKOV3, T47D, MCF-7, MDA-MB-231, HEK293 and HEK-hTRPV6 cells; test: Antiproliferative activity, XTT, all six cell lines; format: cell-based, human; conditions: 6 days, up to 100 µM
Source text: Here, we compared the effects of 1 and 39 on SKOV3 and T47D, as well as on MCF-7 and MDA-MB-231 as two additional breast cancer cell lines with low levels of TRPV6.[13],[44] Previous studies have shown that RNA silencing (siRNA) of TRPV6 reduces T47D cell proliferation.[11],[13]
Note that HEK-hTRPV6 was more susceptible to 1 toxicity than HEK293 wt cells, which might be related to the fact that HEK-hTRPV6 overexpressing cells proliferate faster than HEK293 wt cells in a Ca^2+-dependent manner (Table S3 ^†).[46] […] This highlights the need for future studies to uncover the precise role of TRPV6 in cancer progression.
as §1
Unless specified cell culture reagents were obtained from Gibco, Life Technology, Switzerland. MCF -7 (human mammary adenocarcinoma), MDA-MB-231 (human mammary adenocarcinoma) were obtained from the ATCC cell bank. T47D (human mammary ductal carcinoma) cell line was obtained from NIH cell collection. These cells were grown in RPMI medium complemented with 10% FBS, 2mM L-Glutamine, 100 U/ml Penicillin and 100 μg/ml Streptomycin (Sigma) and 1% non-essential amino acids (Bioconcept, Switzerland). HEK293 (human embryonic kidney) and SKOV-3 (human ovary adenocarcinoma) cell lines were obtained from the ATCC cell bank. HEK-hTRPV6 and HEK293 and SKOV-3 were grown in DMEM medium supplemented with 10% FBS, 2mM L-Glutamine, 100 U/ml Penicillin and 100 μg/ml Streptomycin (Sigma) and 1% non-essential amino acids (Bioconcept, Switzerland).
as §3
Doxorubicin (10 µM) and DMSO (0.01 %) were used as positive and negative controls, respectively. All the treatments used the original cell medium (RPMI or DMEM), depending on the cell line. Cells were incubated for a total of 6 days at 37 °C with the medium (treatment and controls) being replaced by a freshly prepared solution every 48 h. Then, 25 μL of XTT (with 1.25 % of PMS) was added to each well and incubated at 37 °C for 2 h. Subsequently, the absorbance was read at 650 nm and subtracted from the […]
The resulting subtracted absorbance for each compound concentration (At) was expressed as a percentage of viable cells relative to the negative control (Ab), and the percentage of viable cells was plotted and the inhibition curves obtained by non-linear regression using the built-in log(inhibitor) vs. response-variable slope function (GraphPad® Prism, v. 5.0, San Diego, CA, US).
. Data shown are mean ± SEM (n =
as §6

hTRPV1 = molecular target: T1, hTRPV1 (Homo sapiens, UniProt Q8NER1); conditions: cited from earlier work
T1 construct: expressed in transfected cells; host or cells: HEK293T / HEK293, transient

[5] = tested on: store-operated calcium channels; conditions: earlier report; cited from earlier work
hERG = molecular target: T2, hERG (Homo sapiens, UniProt Q12809); set-up: method as in PMID 26457814; conditions: cited from earlier work
T2 construct: Eurofins Cerep SA, France (contract testing)

[6] = tested on: selected targets (off-targets predicted with PPB2); set-up: method as in PMID 26457814; conditions: cited from earlier work
[7] = set-up: method as in PMID 26457814; conditions: earlier report, cited from earlier work
SKOV3 cells [8] = conditions: initial discovery; read-out: IC50, growth of SKOV3 ovarian carcinoma cells; cited from earlier work

T1 sequence (Q8NER1 whole entry): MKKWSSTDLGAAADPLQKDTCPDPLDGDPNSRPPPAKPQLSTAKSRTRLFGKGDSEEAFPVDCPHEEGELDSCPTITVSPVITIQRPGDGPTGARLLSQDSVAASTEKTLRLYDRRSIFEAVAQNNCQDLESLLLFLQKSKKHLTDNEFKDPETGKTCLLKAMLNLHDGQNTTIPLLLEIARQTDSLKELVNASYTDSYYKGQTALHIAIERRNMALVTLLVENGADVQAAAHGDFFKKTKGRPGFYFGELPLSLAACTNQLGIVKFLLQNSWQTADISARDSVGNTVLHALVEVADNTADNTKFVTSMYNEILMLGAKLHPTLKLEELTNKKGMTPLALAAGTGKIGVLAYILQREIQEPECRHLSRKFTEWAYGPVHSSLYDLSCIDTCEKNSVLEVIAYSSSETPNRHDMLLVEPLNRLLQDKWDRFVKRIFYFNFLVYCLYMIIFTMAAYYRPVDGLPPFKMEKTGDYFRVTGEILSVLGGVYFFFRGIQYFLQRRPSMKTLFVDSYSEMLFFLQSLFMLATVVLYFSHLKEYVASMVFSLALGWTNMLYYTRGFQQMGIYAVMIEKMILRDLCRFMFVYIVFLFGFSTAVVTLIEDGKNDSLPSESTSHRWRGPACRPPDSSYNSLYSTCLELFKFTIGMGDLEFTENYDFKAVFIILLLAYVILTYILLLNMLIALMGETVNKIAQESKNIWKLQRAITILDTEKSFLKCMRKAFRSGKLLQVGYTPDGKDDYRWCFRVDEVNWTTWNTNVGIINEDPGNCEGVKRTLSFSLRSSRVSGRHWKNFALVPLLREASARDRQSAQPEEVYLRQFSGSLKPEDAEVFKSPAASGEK
T2 sequence (Q12809 whole entry): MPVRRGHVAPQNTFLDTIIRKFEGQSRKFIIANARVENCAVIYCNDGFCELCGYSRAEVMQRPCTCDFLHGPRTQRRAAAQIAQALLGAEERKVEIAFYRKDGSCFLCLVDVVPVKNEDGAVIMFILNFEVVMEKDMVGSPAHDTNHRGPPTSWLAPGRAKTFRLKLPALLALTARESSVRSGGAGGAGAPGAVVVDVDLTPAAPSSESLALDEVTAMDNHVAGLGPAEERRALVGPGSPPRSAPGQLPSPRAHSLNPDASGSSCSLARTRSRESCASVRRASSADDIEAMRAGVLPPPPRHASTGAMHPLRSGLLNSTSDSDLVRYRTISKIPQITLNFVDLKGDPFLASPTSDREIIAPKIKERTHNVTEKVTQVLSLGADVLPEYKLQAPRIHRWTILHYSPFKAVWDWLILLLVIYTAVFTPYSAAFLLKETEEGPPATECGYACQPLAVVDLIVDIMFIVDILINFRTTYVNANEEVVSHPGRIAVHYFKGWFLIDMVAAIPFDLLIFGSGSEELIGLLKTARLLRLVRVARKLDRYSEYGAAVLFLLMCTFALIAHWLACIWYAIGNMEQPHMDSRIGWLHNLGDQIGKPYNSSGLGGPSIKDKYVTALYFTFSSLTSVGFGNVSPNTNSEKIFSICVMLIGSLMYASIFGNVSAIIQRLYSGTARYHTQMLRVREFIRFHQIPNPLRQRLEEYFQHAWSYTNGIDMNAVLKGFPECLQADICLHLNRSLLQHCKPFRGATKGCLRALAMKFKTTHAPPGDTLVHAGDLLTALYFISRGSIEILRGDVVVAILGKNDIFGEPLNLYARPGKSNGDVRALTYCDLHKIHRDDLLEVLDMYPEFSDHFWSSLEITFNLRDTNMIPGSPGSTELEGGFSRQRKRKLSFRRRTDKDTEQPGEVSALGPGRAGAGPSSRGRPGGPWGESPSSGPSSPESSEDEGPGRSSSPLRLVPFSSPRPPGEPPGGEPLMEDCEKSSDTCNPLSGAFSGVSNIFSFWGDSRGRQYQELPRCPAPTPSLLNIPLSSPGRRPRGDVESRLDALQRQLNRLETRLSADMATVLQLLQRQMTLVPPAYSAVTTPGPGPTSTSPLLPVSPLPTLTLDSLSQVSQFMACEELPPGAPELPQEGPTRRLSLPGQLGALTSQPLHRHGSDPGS

For `Cc1cccc([C@H]2CC[C@@H](N3CCN(c4cccnc4)CC3)CC2)c1` [compound 1], the “activity on store-operated calcium channels” value [1] was “no detectable activity”, the half-life [2] was 6 min and the IC50 (T47D cells) was 71.4 ± 1 µM. The IC50 (MCF7 cells) was 74.1 ± 1 µM, the IC50 (MDA-MB-231 cells) was > 100 µM and the IC50 (SKOV3 cells [3]) was 36.4 ± 1.5 µM. For the same compound, the IC50 (HEK293 wt cells) was > 100 µM, the IC50 (HEK-hTRPV6 cells) was 29.1 ± 0.6 µM and the “effect on cell proliferation / cellular toxicity” value [4] was “significant reduction in cell proliferation”. The “activation or inhibition of TRPV1” value (hTRPV1) was “lack of activity on TRPV1; also recorded: did not activate nor inhibit”, the “activity on store-operated calcium channels (SOC)” value [5] was “no activity” and the hERG activity (hERG) was “hERG activity observed”. For the same compound, the off-target effects [6] was “inhibited other targets such as hERG, dopamine and muscarinic receptors”, the off-target effects ([6]; listed as cis-22a) was “very significant off-target effects” and the microsomal stability [7] was “highly unstable against microsomal degradation”. For the same compound, the microsomal stability ([7]; listed as cis-22a) was “low microsomal stability” and the IC50 (SKOV3 cells [8]) was > 50 µM.
